Measured values from US20240374546A1, “USES AND METHODS FOR PROMOTING INCREASED MITOCHONDRIAL MASS AND FUNCTION” (Brightseed, Inc., priority 2022, published 2024).
Read-outs that look alike come from different tables or passages of the source.

Columns and labels:
cleaved caspase3 = experiment: Cleaved caspase3 immunostaining; type: in vivo, mouse; conditions: mice fed HFD with vs without NCT
Experimental: Frozen liver sections were permeabilized using 0.3% Triton-X and incubated in antigen retrieval solution (Antigen retrieval citrate, Biogenex) at sub-boiling temperature for 10 min. Subsequently, sections were incubated with blocking buffer containing 5% normal donkey serum (Jackson Immuno Research) followed by incubation overnight at 4° C. with mouse anti-HNF4α monoclonal antibody (1:800, Cat #PP-H1415-00, R&D Systems), rabbit polyclonal anti-VDAC antibody (1:400, cat #PA1-954A, Invitrogen) and cleaved caspase3 antibody (1:500, cat #9664, Cell Signaling). Sections were washed and incubated for 1 hour at room temperature with anti-mouse secondary antibody coupled with Alexa fluor 488 (1:400, Invitrogen) and antirabbit secondary antibody coupled with rhodamine red. Nuclei were visualized by counterstaining with DAPI (40,6-diamidino-2-phenylindole, Sigma Aldrich). Slides were mounted using fluorescence mounting medium and images were obtained at 40× magnification using an Olympus IX71 fluorescence microscope. Fluorescence intensity of HNF4α-stained nuclei and VDAC stained mitochondria was calculated using MetaMorph TL software (version 7.6.5.0, Olympus). Fold change was calculated by normalizing to values from mice fed NC. […]

HNF4α = biological target: T1, HNF4α (Homo sapiens, UniProt P41235); experiment: Cell-based human insulin promoter reporter assay sensitive to HNF4α activity
T1 sequence (P41235 1-474): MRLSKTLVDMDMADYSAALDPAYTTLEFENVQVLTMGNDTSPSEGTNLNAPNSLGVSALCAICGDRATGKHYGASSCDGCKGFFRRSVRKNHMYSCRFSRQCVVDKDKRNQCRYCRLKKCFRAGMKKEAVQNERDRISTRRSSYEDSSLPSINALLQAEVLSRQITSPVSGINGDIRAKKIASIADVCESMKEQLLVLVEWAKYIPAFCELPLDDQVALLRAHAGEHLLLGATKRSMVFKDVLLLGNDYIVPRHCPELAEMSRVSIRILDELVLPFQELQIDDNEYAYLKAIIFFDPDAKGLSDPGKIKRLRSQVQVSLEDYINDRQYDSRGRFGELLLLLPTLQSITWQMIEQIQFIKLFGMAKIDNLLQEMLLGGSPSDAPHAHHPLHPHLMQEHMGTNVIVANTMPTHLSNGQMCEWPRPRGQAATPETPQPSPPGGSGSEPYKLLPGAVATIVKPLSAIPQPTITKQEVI
Text: HNF4α is a nuclear receptor transcription factor that controls the expression of downstream genes that are important in multiple aspects of cellular metabolism. The classical view of HNF4α has been that its ligand binding pocket (LBP) is constitutively occupied by a fatty acid that plays a structural rather than regulatory role. However, it has been shown recently that the fatty acids in the HNF4α LBP are exchangeable in the context of full length HNF4α, particularly inside the cell. […] Using the assay in high-throughput screening, it was discovered HNF4α antagonists and more recently agonists. […] Previously, it was shown that intraperitoneal (IP) administration of NCT reversed hepatic steatosis in obese mice fed a high fat diet through a previously unsuspected pathway involving regulation by HNF4α of dihydroceramide synthesis.

PPARGC1A mRNA = experiment: qPCR primary human hepatocytes, PPARGC1A mRNA; type: cell-based; conditions: NCT 5, 15, 40 μM
Experimental: (§1) Experiments with primary human hepatocytes were performed by CN-Bio (Cambridge, UK). Briefly, primary human hepatocytes (PHHs), human Kupffer cells (HKs) and human stellate cells (HSCs) were seeded onto CN-Bio's PhysioMimix LC12 MPS culture plates at 6×10^5 cells for PHHs and 6×10^4 cells for HKs and HSCs in 1.6 ml of CN-Bio's HEP-lean media with 5% FCS. Throughout the experiment the cells were maintained at a flow rate of 1 μl/s. After 24 hours (Day 1) of seeding, the media was changed to HEP-lean media and the cells were incubated until day 4 to allow the cells to form microtissues. At day 4 post seeding, media was changed to HEP-fat media and treated with DMSO or NCT (5, 15, 40 μM). Media was replaced on days 6 and 8. Cells were harvested on day 10 for RNA extraction and culture media was collected for ELISA analysis.
(§2) Total RNA was isolated from liver tissues and primary human hepatocytes using Trizol (Invitrogen). cDNA was amplified using 3 μg of total RNA using qScript cDNA SuperMix (Quanta BioSciences, Beverly, MA, USA). Quantitative real time PCR (RT-PCR) analysis was performed using SYBR® Select Master Mix (Applied Biosystems) and an ABI 7900HT thermal cycler (Applied Biosystems, Thermo Fisher Scientific). Ct values were normalized to 18s rRNA and are expressed as fold change over samples from mice fed NC or cultured human hepatocytes without NCT.

[1] = Triglyceride analysis in liver, serum and stool; type: in vivo, mouse; conditions: HFD+NCT vs HFD
Experimental: The TG level in mouse liver, serum and stool was measured according to manufacturer's instructions using the Triglyceride Calorimetric Assay Kit (Cat #10010303, Cayman Chemicals, USA). Liver and stool TG was normalized with liver and stool weight, respectively. Fold change was calculated by normalizing to values from mice fed NC.

IL-6 = experiment: ELISA for IL-6 secreted into medium of primary human hepatocytes; type: cell-based; conditions: NCT 5, 15, 40 μM
Experimental: as §1

Sirtuin1 mRNA = experiment: qPCR primary human hepatocytes, Sirtuin1 mRNA; type: cell-based; conditions: NCT 5, 15, 40 μM
Experimental: as §1, §2

PPARγ mRNA = experiment: qPCR mouse liver, PPARγ mRNA; type: in vivo; conditions: HFD+NCT vs HFD; to the level of normal chow
Experimental: as §2

[2] = system: mitochondrial DNA (ND1, 16S rRNA); experiment: Mitochondrial DNA analysis in mouse liver; type: in vivo; conditions: normalized with HK2
Experimental: Quantification of mtDNA was performed as described (BCurr Protoc Mouse Biol 2017; 7:47-54). Snap frozen mouse liver was homogenized and total cellular DNA was extracted with a QIAamp DNA kit (Qiagen) followed b PCR with the primers below: […]

SDHA mRNA = experiment: qPCR primary human hepatocytes, SDHA mRNA; type: cell-based; conditions: NCT 5, 15, 40 μM
Experimental: as §1, §2

O=C(/C=C/c1ccc(O)c(O)c1)NCCc1ccc(O)cc1 [NCT, N-transcaffeoyltyramine]
Caspase 3, marker of apoptosis (cleaved caspase3): no change | HNF4α agonist activity (HNF4α): strong HNF4α agonists | HNF4α agonist activity (HNF4α; listed as N-trans caffeoyltyramine): potent agonist | PPARGC1A mRNA in primary human hepatocytes (PPARGC1A mRNA): increased | hepatic TG ([1]; normalized to liver weight): lower TG | circulating TG ([1]; serum, 10 weeks): no difference | IL-6 protein secreted by cultured human hepatocytes (IL-6): reduced | Sirtuin1 mRNA in primary human hepatocytes (Sirtuin1 mRNA): significant effect | PPARγ expression in mouse liver (PPARγ mRNA): dramatically reduced | mitochondrial DNA, 16S rRNA [2]: significant increase | mitochondrial DNA, ND1 [2]: significant increase | SDHA mRNA in primary human hepatocytes (SDHA mRNA): increased
